{"source": "patent US12064455B2", "about": "“Free fatty acids and methods of manufacture and use for treating coronavirus and other viral respiratory infections” (priority 2020, dated 2024)", "key": {"[1]": {"test_system": "Ad-5", "type": "cell-based, Adenovirus Type 5"}, "[2]": {"test_system": "A549", "test": "Toxicity controls, Example 8", "type": "cell-based", "conditions": "Ethanol 70%; Ad-5 test; highest dilution with full (80-100%) cytotoxicity"}, "[3]": {"test_system": "hCoV-229E", "test": "Neutralization/virucidal assay, Example 8"}, "[4]": {"test_system": "HRV-14", "type": "cell-based, human rhinovirus"}, "[5]": {"test_system": "SARS-CoV-2", "type": "cell-based", "conditions": "Ethanol 35%"}, "[6]": {"test_system": "Huh7"}, "[7]": {"test_system": "PIV-3", "type": "cell-based, parainfluenza virus type 3"}, "[8]": {"test_system": "Influenza(H1N1)pdm09 virus", "test": "Neutralization/virucidal assay, Example 8", "type": "cell-based, influenza A(H1N1)pdm09", "conditions": "Ethanol 70%"}, "[9]": {"test_system": "MDCK"}, "[10]": {"test_system": "RSV", "type": "cell-based, respiratory syncytial virus"}, "[11]": {"test_system": "MA-104", "test": "Toxicity controls, Example 8", "conditions": "Ethanol 70%, highest dilution with full (80-100%) cytotoxicity"}, "[12]": {"test_system": "HeLa", "test": "Toxicity controls, Example 8", "conditions": "Ethanol 70%; HRV-14 test; highest dilution with full (80-100%) cytotoxicity"}}, "note": "Where two headings read alike, the source gives them in different places."}
{"smiles": "CCO", "note": "[Ethanol]", "values": [{"measurement": "LRV", "setting": "[1]", "value": 3.4}, {"measurement": "Virus Titer", "setting": "[1]", "value": "5.3 log10 CCID50 of virus per 0.1 mL"}, {"measurement": "Toxicity", "setting": "[2]", "value": "None"}, {"measurement": "Virus Titer", "setting": "[3]", "value": "<0.7 log10 CCID50 of virus per 0.1 mL"}, {"measurement": "LRV", "setting": "[3]; Ethanol 70%, contact time 10-min, vs virus control", "value": ">2.0"}, {"measurement": "Virus Titer", "setting": "[4]", "value": "4.5 log10 CCID50 of virus per 0.1 mL"}, {"measurement": "LRV", "setting": "[5]; assay replicate 1", "value": ">3.6−"}, {"measurement": "Virus Titer", "setting": "[5]; assay replicate 1", "value": "<0.7 Log10CCID50 of virus per 0.1 ml"}, {"measurement": "LRV", "setting": "[5]; assay replicate 2", "value": ">3.3"}, {"measurement": "Virus Titer", "setting": "[5]; assay replicate 2", "value": "<0.7 Log10CCID50 of virus per 0.1 ml"}, {"measurement": "Toxicity", "setting": "[6]", "value": "None"}, {"measurement": "LRV", "setting": "[7]", "value": ">2.3"}, {"measurement": "Virus Titer", "setting": "[8]; contact time 10-min at 22 ± 2° C.", "value": "3.0 log10 CCID50 of virus per 0.1 mL"}, {"measurement": "LRV", "setting": "[8]; contact time 10-min, vs virus control", "value": 4.0}, {"measurement": "Toxicity", "setting": "[9]", "value": "None"}, {"measurement": "LRV", "setting": "[10]", "value": 2.0}, {"measurement": "Virus Titer", "setting": "[10]", "value": "1.0 log10 CCID50 of virus per 0.1 mL"}, {"measurement": "Toxicity", "setting": "[11]; PIV-3 test", "value": "None"}, {"measurement": "Toxicity", "setting": "[11]; RSV test", "value": "None"}, {"measurement": "Toxicity", "setting": "[12]", "value": "None"}]}
